Results taken from PubChem BioAssay (NCI).
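Grown in 96-well plates, cells were treated for 48 hours with each compound at five concentrations. Insufficient inhibition: endpoint recorded as highest concentration tested. GI50 marks 50% less growth. TGI: concentration producing complete growth inhibition.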

Columns and labels:
Assay in all cases: inhibition of tumour cell growth, NCI panel, 48 h
786-0 renal = test system: 786-0 renal
A549 NSCLC = test system: A549 NSCLC
ACHN renal = test system: ACHN renal
BT-549 breast = test system: BT-549 breast
CAKI-1 renal = test system: CAKI-1 renal
CCRF-CEM leukemia = test system: CCRF-CEM leukemia
COLO 205 colon = test system: COLO 205 colon
DU-145 prostate = test system: DU-145 prostate
EKVX NSCLC = test system: EKVX NSCLC
HCC-2998 colon = test system: HCC-2998 colon
HCT-116 colon = test system: HCT-116 colon
HCT-15 colon = test system: HCT-15 colon
HL-60(TB) leukemia = test system: HL-60(TB) leukemia
HOP-62 NSCLC = test system: HOP-62 NSCLC
HOP-92 NSCLC = test system: HOP-92 NSCLC
HS 578T breast = test system: HS 578T breast
HT29 colon = test system: HT29 colon
IGROV1 ovarian = test system: IGROV1 ovarian
K-562 leukemia = test system: K-562 leukemia
KM12 colon = test system: KM12 colon
LOX IMVI melanoma = test system: LOX IMVI melanoma
M14 melanoma = test system: M14 melanoma
MALME-3M melanoma = test system: MALME-3M melanoma
MCF7 breast = test system: MCF7 breast
MDA-MB-231 breast = test system: MDA-MB-231 breast
MDA-MB-435 = test system: MDA-MB-435
MOLT-4 leukemia = test system: MOLT-4 leukemia
NCI-H226 lung = test system: NCI-H226 lung
NCI-H23 lung = test system: NCI-H23 lung
NCI-H460 lung = test system: NCI-H460 lung
NCI-H522 lung = test system: NCI-H522 lung
NCI/ADR-RES ovarian = test system: NCI/ADR-RES ovarian
OVCAR-3 ovarian = test system: OVCAR-3 ovarian
OVCAR-4 ovarian = test system: OVCAR-4 ovarian
OVCAR-5 ovarian = test system: OVCAR-5 ovarian
OVCAR-8 ovarian = test system: OVCAR-8 ovarian
PC-3 prostate = test system: PC-3 prostate
RPMI-8226 leukemia = test system: RPMI-8226 leukemia
RXF 393 renal = test system: RXF 393 renal
SF-268 CNS = test system: SF-268 CNS
SF-295 CNS = test system: SF-295 CNS
SF-539 CNS = test system: SF-539 CNS
SK-MEL-2 melanoma = test system: SK-MEL-2 melanoma
SK-MEL-28 melanoma = test system: SK-MEL-28 melanoma
SK-MEL-5 melanoma = test system: SK-MEL-5 melanoma
SK-OV-3 ovarian = test system: SK-OV-3 ovarian
SN12C renal = test system: SN12C renal
SNB-19 CNS = test system: SNB-19 CNS
SNB-75 CNS = test system: SNB-75 CNS
SR leukemia = test system: SR leukemia
T-47D breast = test system: T-47D breast
TK-10 renal = test system: TK-10 renal
U251 CNS = test system: U251 CNS
UACC-257 melanoma = test system: UACC-257 melanoma
UACC-62 melanoma = test system: UACC-62 melanoma
UO-31 renal = test system: UO-31 renal

## O=C(c1ccc2ccccc2c1)c1c(C(F)(F)F)n([O-])c2cc(C(F)(F)F)ccc2[n+]1=O
786-0 renal
  GI50: 1.62 µM
  TGI: 3.15 µM
A549 NSCLC
  GI50: 1.66 µM
  TGI: 3.51 µM
ACHN renal
  GI50: 1.5 µM
  TGI: 2.88 µM
BT-549 breast
  GI50: 1.43 µM
  TGI: 2.9 µM
CAKI-1 renal
  GI50: 0.621 µM
  TGI: 1.45 µM
CCRF-CEM leukemia
  TGI: 0.385 µM
COLO 205 colon
  GI50: 1.92 µM
  TGI: 4.05 µM
DU-145 prostate
  GI50: 1.67 µM
  TGI: 3.12 µM
EKVX NSCLC
  GI50: 1.57 µM
  TGI: 3.43 µM
HCC-2998 colon
  GI50: 1.82 µM
  TGI: 3.37 µM
HCT-116 colon
  GI50: 1.41 µM
  TGI: 2.78 µM
HCT-15 colon
  GI50: 1.69 µM
  TGI: 3.4 µM
HL-60(TB) leukemia
  GI50: 1.54 µM
  TGI: 3.59 µM
HOP-62 NSCLC
  GI50: 1.92 µM
  TGI: 3.72 µM
HOP-92 NSCLC
  GI50: 1.39 µM
  TGI: 2.79 µM
HS 578T breast
  TGI: > 22.2 µM
HT29 colon
  GI50: 1.74 µM
  TGI: 3.46 µM
IGROV1 ovarian
  GI50: 1.71 µM
  TGI: 3.36 µM
K-562 leukemia
  GI50: 1.38 µM
  TGI: 2.9 µM
KM12 colon
  GI50: 1.69 µM
  TGI: 3.22 µM
LOX IMVI melanoma
  GI50: 1.63 µM
  TGI: 3.22 µM
M14 melanoma
  GI50: 1.65 µM
  TGI: 3.1 µM
MALME-3M melanoma
  GI50: 1.67 µM
  TGI: 3.36 µM
MCF7 breast
  GI50: 1.63 µM
  TGI: 3.49 µM
MDA-MB-231 breast
  GI50: 1.7 µM
  TGI: 3.25 µM
MDA-MB-435
  GI50: 1.71 µM
  TGI: 3.31 µM
MOLT-4 leukemia
  GI50: 1.49 µM
  TGI: 3.9 µM
NCI-H226 lung
  GI50: 1.49 µM
  TGI: 3.5 µM
NCI-H23 lung
  GI50: 2.41 µM
  TGI: 5.87 µM
NCI-H460 lung
  GI50: 1.66 µM
  TGI: 3.44 µM
NCI-H522 lung
  GI50: 1.55 µM
  TGI: 3.09 µM
NCI/ADR-RES ovarian
  GI50: 2.08 µM
  TGI: 4.8 µM
OVCAR-3 ovarian
  GI50: 1.48 µM
  TGI: 2.97 µM
OVCAR-4 ovarian
  GI50: 1.22 µM
  TGI: 3.51 µM
OVCAR-5 ovarian
  GI50: 2.03 µM
  TGI: 4.79 µM
OVCAR-8 ovarian
  GI50: 2.02 µM
  TGI: 5.2 µM
PC-3 prostate
  GI50: 1.34 µM
  TGI: 2.75 µM
RPMI-8226 leukemia
  GI50: 1.25 µM
  TGI: 3.37 µM
RXF 393 renal
  GI50: 1.5 µM
  TGI: 3.16 µM
SF-268 CNS
  GI50: 1.56 µM
  TGI: 3.05 µM
SF-295 CNS
  GI50: 1.45 µM
  TGI: 2.84 µM
SF-539 CNS
  GI50: 1.71 µM
  TGI: 3.23 µM
SK-MEL-2 melanoma
  GI50: 2.02 µM
  TGI: 3.86 µM
SK-MEL-28 melanoma
  GI50: 1.74 µM
  TGI: 3.38 µM
SK-MEL-5 melanoma
  GI50: 8.14 µM
SK-OV-3 ovarian
  GI50: 1.79 µM
  TGI: 3.23 µM
SN12C renal
  GI50: 1.68 µM
  TGI: 3.81 µM
SNB-19 CNS
  GI50: 1.88 µM
  TGI: 3.43 µM
SNB-75 CNS
  GI50: 1.73 µM
  TGI: 3.13 µM
SR leukemia
  GI50: 0.86 µM
  TGI: 2.64 µM
T-47D breast
  GI50: 1.31 µM
  TGI: 3.38 µM
TK-10 renal
  GI50: 1.68 µM
  TGI: 3.06 µM
U251 CNS
  GI50: 1.75 µM
  TGI: 3.29 µM
UACC-257 melanoma
  GI50: 1.22 µM
  TGI: 2.69 µM
UACC-62 melanoma
  GI50: 1.55 µM
  TGI: 3.06 µM
UO-31 renal
  GI50: 1.36 µM
  TGI: 2.7 µM
